The source of these data is patent publication US6472526B1, “Imidazole derivatives having an inhibitory activity for farnesyl transferase and process for preparation thereof” (LG Chemical Ltd., priority 1997, dated 2002).

Test [1] addresses T1, Ras farnesyl transferase (Rattus norvegicus, UniProt Q02293+Q04631).
T1 construct: endogenous in cells; host or cells: Rat2 fibroblasts transformed with H-Ras or with an H-Ras/K-Ras C-terminus fusion
Nature of the test: In vivo (cellular) inhibitory activity for Ras farnesyl transferase, Rat2 cell line transformed with fused protein of H-Ras substituted with polybasic lysine domain at C-terminus of K-Ras. The format is cell-based. In outline:
(§1)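 Farnesylated versus unfarnesylated Ras bands were measured by autoradiography after Y13-259 immunoprecipitation and SDS-PAGE, giving CIC50 as 50% inhibition of farnesylation. Rat2 cells expressing H-Ras or an H-Ras fusion with K-Ras polybasic C-terminus got compound (1% DMSO), then [35S]methionine from 4 h onward for 20 h.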

The target in test [2] is T2, Ras farnesyl transferase (Homo sapiens, UniProt P49354+P49356).
T2 construct: made in house
Nature of the test: In vitro inhibitory activity for Ras farnesyl transferase, H-Ras substrate. The format is biochemical.

Test [3] concerns the target T1, Ras farnesyl transferase. Kind of test: In vivo (cellular) inhibitory activity for Ras farnesyl transferase, Rat2 cell line which expresses C-Harvey-Ras protein. The format is cell-based. In outline: as §1
Test [4] addresses T2, Ras farnesyl transferase. Kind of test: In vitro inhibitory activity for Ras farnesyl transferase, K-Ras substrate. The format is biochemical.
[5] abbreviates: Rat2 cell line transformed with H-Ras fused with polybasic lysine domain of K-Ras C-terminus, concentration inhibiting 50% of farnesyl bonding, read-out: K-Ras CIC50.
[6] abbreviates: recombinant farnesyl transferase 4.5 nM, Ras substrate protein 1.5 μM, tritium-farnesylpyrophosphate 0.15 μM, 30 minutes at 37° C., read-out: H-Ras IC50.
Setting [7] is: Rat2 cell line expressing C-Harvey-Ras, concentration inhibiting 50% of farnesyl bonding of Ras protein, read-out: H-Ras CIC50.
Where [8] appears, read: in vitro farnesyl transferase assay, K-Ras, read-out: K-Ras IC50.

On to `CN1CCN(C(=O)c2cn(Cc3cncn3Cc3ccc(Cl)cc3)cc2-c2cccc3ccccc23)CC1` [Compound 126, 1-[1-(4-Chlorobenzyl)-1H-imidazol-5-yl]methyl-3-[4-methylpiperazin-1-yl]carbonyl-4-(naphthalen-1-yl)-1H-pyrrole], for which the IC50 in test [1] (setting [5]) amounted to 5000 nM; in test [2] (setting [6]) it was 1 nM; in test [3] (setting [7]), 12 nM; in test [4] (setting [8]), 4 nM.
The corresponding values for `COCCN(C)C(=O)c1cn(Cc2cncn2Cc2ccc(F)cc2)cc1-c1cccc2ccccc12` [Compound 127, 1-[1-(4-fluorobenzyl)-1H-imidazol-5-yl]methyl-3[N-(2-methoxyethyl)-N-methyl]carbamoyl-4-(naphthalen-1-yl)-1H-pyrrole] are 5000 nM, 2 nM, 15 nM and 5 nM.
The corresponding values for `CN1CCN(C(=O)c2cn(Cc3cncn3Cc3ccc(F)cc3)cc2-c2cccc3ccccc23)CC1` [Compound 128, 1-[1-(4-fluorobenzyl)-1H-imidazol-5-yl]methyl-3-[4-methylpiperazin-1-yl]carbonyl-4-(naphthalen-1-yl)-1H-pyrrole] are 5000 nM, 2 nM, 10 nM and 10 nM.
The corresponding values for `COc1ccc(Cn2cncc2Cn2cc(C(=O)N3CCN(C)CC3)c(-c3cccc4ccccc34)c2)cc1` [Compound 130, 1-[1-(4-Methoxybenzyl)-1H-imidazol-5-yl] methyl-3-(4-methylpiperazin-1-yl)carbonyl-4-(naphthalen-1-yl)-1H-pyrrole] are 10000 to 50000 nM, 2 nM, 25 nM and 3 nM.
Turning to `CN1CCN(C(=O)c2cn(Cc3cncn3Cc3cccc(Cl)c3)cc2-c2cccc3ccccc23)CC1` [Compound 131, 1-[1-(3-Chlorobenzyl)-1H-imidazol-5-yl]methyl-3-(4-methylpiperazin-1-yl)carbonyl-4-(naphthalen-1-yl)-1H-pyrrole], the IC50 was 10000 to 50000 nM in test [1] (setting [5]), 1 nM in test [2] (setting [6]), 12.5 nM in test [3] (setting [7]) and 2.3 nM in test [4] (setting [8]).
On the same counts, the results for `COCCN(C)C(=O)c1cn(Cc2cncn2Cc2cccc(Cl)c2)cc1-c1cccc2ccccc12` [Compound 132, 1-[1-(3-Chlorobenzyl)-1H-imidazol-5-yl]methyl-3-[N-(2-methoxyethyl)-N-methyl]carbamoyl-4-(naphthalen-1-yl)-1H-pyrrole] are 10000 to 50000 nM, 3.5 nM, 25 nM and 11 nM.
The corresponding values for `CN1CCN(C(=O)c2cn(Cc3cncn3Cc3ccccc3Cl)cc2-c2cccc3ccccc23)CC1` [Compound 133, 1-[1-(2-Chlorobenzyl)-1H-imidazol-5-yl]methyl-3-(4-methylpiperazin-1-yl)carbonyl-4-(naphthalen-1-yl)-1H-pyrrole] are 10000 to 50000 nM, 0.65 nM, 25 nM and 2 nM.
On the same counts, the results for `COCCN(C)C(=O)c1cn(Cc2cncn2Cc2ccccc2Cl)cc1-c1cccc2ccccc12` [Compound 134, 1-[1-(2-Chlorobenzyl)-1H-imidazol-5-yl]methyl-3-[N-(2-methoxyethyl)-N-methyl]carbamoyl-4-(naphthalen-1-yl)-1H-pyrrole] are 10000 to 50000 nM, 2.7 nM, 25 nM and 2 nM.
Regarding `CN1CCN(C(=O)c2cn(Cc3cncn3Cc3ccccc3F)cc2-c2cccc3ccccc23)CC1` [Compound 135, 1-[1-(2-Fluorobenzyl)-1H-imidazol-5-yl]methyl-3-(4-methylpiperazin-1-yl)carbonyl-4-(naphthalen-1-yl)-1H-pyrrole], the IC50 is 10000 to 50000 nM in test [1] (setting [5]), 2.4 nM in test [2] (setting [6]), 30 nM in test [3] (setting [7]) and 4 nM in test [4] (setting [8]).
The corresponding values for `Cc1ccc(Cn2cncc2Cn2cc(C(=O)N3CCN(C)CC3)c(-c3cccc4ccccc34)c2)cc1` [Compound 136] are 10000 to 50000 nM, 1.6 nM, 25 nM and 2.4 nM.
The corresponding values for `Cc1ccc(Cn2cncc2Cn2cc(C(=O)N3CCOCC3)c(-c3cccc4ccccc34)c2)cc1` [Compound 137] are 10000 to 20000 nM, 1.7 nM, 20 nM and 2.1 nM.
On the same counts, the results for `Cc1cccc(Cn2cncc2Cn2cc(C(=O)N3CCN(C)CC3)c(-c3cccc4ccccc34)c2)c1` [Compound 138, 1-[1-(3-Methylbenzyl)-1H-imidazol-5-yl]methyl-3-(4-methylpiperazin-1-yl)carbonyl-4-(naphthalen-1-yl)-1H-pyrrole] are 10000 to 50000 nM, 1.4 nM, 25 nM and 3.5 nM.
Regarding `N#Cc1ccc(Cn2cncc2Cn2ccc(C(=O)c3cccc4ccccc34)c2)cc1` [Compound 139, 1-[1-(4-Cyanobenzyl)-1H-imidazol-5-yl]methyl-3-(naphthalen-1-yl)carbonyl-1H-pyrrole], the IC50 in test [1] amounted to 7000 nM; in test [2] it was 5 nM; in test [3], 70 nM; in test [4], 37000 nM.
Regarding `O=C(c1ccn(Cc2cncn2Cc2ccc(Br)cc2)c1)c1cccc2ccccc12` [Compound 140, 1-[1-(4-Bromobenzyl)-1H-imidazol-5-yl]methyl-3-(naphthalen-1-yl)carbonyl-1H-pyrrole], the IC50 in test [1] is 10000 to 50000 nM; in test [2], 90 nM; in test [3], 1000 to 10000 nM; in test [4], 10000 to 50000 nM.
Regarding `COCCN(C)C(=O)c1cn(Cc2cncn2Cc2ccc(Br)cc2)cc1C(=O)c1cccc2ccccc12` [Compound 141], the IC50 in test [1] was 10000 to 50000 nM; in test [2] it was 230 nM; in test [3], 1000 to 10000 nM; in test [4], 10000 to 100000 nM.
As to `CCOC(=O)c1nc(Cc2cnc[nH]2)oc1-c1cccc2ccccc12` [Compound 142, 4-Ethoxycarbonyl-2-(1H-imidazol-5-ylmethyl)-5-(naphthalen-1-yl)oxazole], the IC50 in test [1] (setting [5]) is more than 50000 nM; in test [2] (setting [6]), 12000 nM; in test [3] (setting [7]), more than 50000 nM; in test [4] (setting [8]), more than 50000 nM.
As for `O=C(c1nc(Cc2cnc[nH]2)oc1-c1cccc2ccccc12)N1CCOCC1` [Compound 143, 2-(1H-Imidazol-5-ylmethyl)-4-(morpholin-4-yl)carbonyl-5-(naphthalen-1-yl)oxazole], the IC50 in test [1] (setting [5]) was more than 50000 nM; in test [2] (setting [6]), 1200 nM; in test [3] (setting [7]), 20000 nM; in test [4] (setting [8]), more than 50000 nM.
For the compound `COC(=O)c1nc(Cc2cncn2Cc2ccc(Cl)cc2)sc1-c1cccc2ccccc12` [Compound 145, 2-[1-(4-Chlorobenzyl)-1H-imidazol-5-ylmethyl]-4-methoxycarbonyl-5-(naphthalen-1-yl)thiazole], the IC50 in test [1] (setting [5]) was found to be 25000 nM; in test [2] (setting [6]), 7 nM; in test [3] (setting [7]), 100 nM; in test [4] (setting [8]), 70 nM.
The corresponding values for `COC(=O)c1sc(Cc2cncn2Cc2ccc(Cl)cc2)nc1-c1cccc2ccccc12` [Compound 148] are more than 50000 nM, 1700 nM, 30000 nM and more than 50000 nM.
On the same counts, the results for `COC(=O)c1sc(Cc2cncn2CC2CCN(C(=O)OCc3ccccc3)CC2)nc1-c1cccc2ccccc12` [Compound 150] are more than 50000 nM, 8000 nM, more than 50000 nM and more than 50000 nM.
The corresponding values for `COCCN(C)C(=O)c1cn(Cc2cncn2Cc2ccc(Cl)cc2)nc1-c1cccc2ccccc12` [Compound 155, 1-[1-(4-Chlorobenzyl)-1H-imidazol-5-ylmethyl]-4-[N-(2-methoxyethyl)-N-methyl]-carbamoyl-3-(naphthalen-1-yl)-1H-pyrazole] are 15000 nM, 20 nM, 100 nM and 200 nM.
For `COCCN(C)C(=O)c1cn(Cc2cncn2Cc2ccc(C#N)cc2)nc1-c1cccc2ccccc12` [Compound 156, 1-[1-(4-Cyanobenzyl)-1H-imidazol-5-ylmethyl]-4-[N-(2-methoxyethyl)-N-methyl]-carbamoyl-3-(naphthalen-1-yl)-1H-pyrazole], the IC50 was 40000 nM in test [1] (setting [5]), 20 nM in test [2] (setting [6]), 100 nM in test [3] (setting [7]) and 200 nM in test [4] (setting [8]).
The corresponding values for `COCCN(C)C(=O)c1cn(Cc2cncn2C)nc1-c1cccc2ccccc12` [Compound 157, 1-[1-Methyl-1H-imidazol-5-ylmethyl]-4-[N-(2-methoxyethyl)-N-methyl]-carbamoyl-3-(naphthalen-1-yl)-1H-pyrazole] are more than 50000 nM, 10 nM, 100 nM and 5000 nM.
